Measured values as given in ChEMBL document CHEMBL1201862, “PubChem BioAssay data set” (2004).
Active and inactive are the calls of the source.

Legend:
[1] = molecular target: T1, Methionyl-tRNA synthetase, putative (Trypanosoma brucei brucei, UniProt Q38C91); assay type: functional, Trypanosoma brucei brucei strain 927/4 GUTat10.1
T1 sequence (Q38C91 whole entry): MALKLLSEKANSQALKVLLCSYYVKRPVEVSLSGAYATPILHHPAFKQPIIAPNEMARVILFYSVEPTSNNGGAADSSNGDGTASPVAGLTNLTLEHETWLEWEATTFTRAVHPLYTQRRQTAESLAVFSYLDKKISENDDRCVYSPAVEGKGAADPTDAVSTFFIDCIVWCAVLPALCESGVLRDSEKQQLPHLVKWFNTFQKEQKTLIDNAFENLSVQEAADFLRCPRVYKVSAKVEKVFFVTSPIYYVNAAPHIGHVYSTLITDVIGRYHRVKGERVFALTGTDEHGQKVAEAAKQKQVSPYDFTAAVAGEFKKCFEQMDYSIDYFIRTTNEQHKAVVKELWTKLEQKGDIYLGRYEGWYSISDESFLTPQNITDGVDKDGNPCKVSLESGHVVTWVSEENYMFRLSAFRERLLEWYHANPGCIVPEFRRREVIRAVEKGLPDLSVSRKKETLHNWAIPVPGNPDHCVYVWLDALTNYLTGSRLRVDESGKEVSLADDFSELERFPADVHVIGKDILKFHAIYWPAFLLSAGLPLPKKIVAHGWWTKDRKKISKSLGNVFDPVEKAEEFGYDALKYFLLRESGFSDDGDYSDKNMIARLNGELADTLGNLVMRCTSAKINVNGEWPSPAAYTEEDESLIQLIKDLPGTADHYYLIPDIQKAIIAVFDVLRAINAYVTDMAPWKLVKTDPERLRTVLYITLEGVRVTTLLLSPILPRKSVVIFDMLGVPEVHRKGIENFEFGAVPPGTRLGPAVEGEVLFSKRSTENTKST

[2] = Counterscreen for inhibitors of Trypanosoma brucei methionyl tRNA synthetase (MetRS): Luminescence-based cell-based high throughput dose response assay to identify compounds that are cytotoxic to Jurkat human T lymphocyte cells.; assay type: functional
[3] = molecular target: T1, Methionyl-tRNA synthetase, putative; assay type: functional, Trypanosoma brucei brucei strain 927/4 GUTat10.1; remark: listed apart in the source
[4] = cytotoxicity in HEK293 background cells – cell-based, dry powder, set 2, counter-screen for EBV LMP1 inhibitor project, dose response (AID 624374); assay type: functional
[5] = molecular target: Fructose-bisphosphate aldolase (Mycobacterium tuberculosis, UniProt P9WQA3); assay: Fluorescence-based biochemical high throughput dose response assay for inhibitors of the fructose-bisphosphate aldolase (FBA) of M. tuberculosis.; assay type: functional
Fructose-bisphosphate aldolase, sequence (P9WQA3 whole entry): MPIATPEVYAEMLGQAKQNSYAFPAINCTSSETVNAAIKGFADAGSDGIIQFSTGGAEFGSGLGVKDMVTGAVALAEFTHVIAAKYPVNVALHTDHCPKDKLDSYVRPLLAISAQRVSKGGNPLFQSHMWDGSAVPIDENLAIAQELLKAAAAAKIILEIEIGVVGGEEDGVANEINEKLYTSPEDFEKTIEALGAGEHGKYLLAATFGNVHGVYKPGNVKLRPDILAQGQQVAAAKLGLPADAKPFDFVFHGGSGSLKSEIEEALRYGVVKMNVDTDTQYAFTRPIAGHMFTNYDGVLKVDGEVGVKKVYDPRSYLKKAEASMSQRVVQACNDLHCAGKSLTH

[6] = viability loss in human Jurkat cells – cell-based, luminescence, cytotoxicity control for P. falciparum gametocyte viability project, dose response (AID 1117277); assay type: functional;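 further: potency reflects loss of cellular ATP meaning fewer viable cells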
[7] = viability inhibitors of stage V gametocytes – luminescence, dose response (AID 1117278); assay type: functional, cell-based;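 further: gametocytes exposed to compound for 24 hours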
[8] = system: Vero; assay: viability loss in Vero cells – cell-based, plate reader, cherry-pick samples, cytotoxicity control, dose response (AID 687020); assay type: functional; details: Chlorocebus sabaeus
[9] = molecular target: Cytochrome P450 3A4 (Homo sapiens, UniProt P08684);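 further: CYP3A4 tested as one member of a cytochrome P450 panel screen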
Cytochrome P450 3A4, sequence (P08684 whole entry): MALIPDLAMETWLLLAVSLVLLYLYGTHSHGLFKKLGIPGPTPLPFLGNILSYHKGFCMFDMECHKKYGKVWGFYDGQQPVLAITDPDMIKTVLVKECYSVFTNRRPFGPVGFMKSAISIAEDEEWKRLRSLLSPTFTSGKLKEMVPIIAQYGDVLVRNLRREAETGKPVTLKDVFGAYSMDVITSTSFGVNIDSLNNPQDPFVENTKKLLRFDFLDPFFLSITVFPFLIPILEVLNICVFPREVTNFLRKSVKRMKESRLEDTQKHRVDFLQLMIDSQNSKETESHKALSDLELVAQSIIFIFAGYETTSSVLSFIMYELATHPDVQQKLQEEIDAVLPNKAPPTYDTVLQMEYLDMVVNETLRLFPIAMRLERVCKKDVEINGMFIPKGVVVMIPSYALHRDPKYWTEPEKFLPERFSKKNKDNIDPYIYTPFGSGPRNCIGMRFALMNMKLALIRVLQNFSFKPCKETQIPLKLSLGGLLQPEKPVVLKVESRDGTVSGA

[10] = molecular target: Voltage-gated inwardly rectifying potassium channel KCNH2 (Homo sapiens, UniProt Q12809); details: Potency;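 further: confirmatory quantitative high-throughput screen measuring inhibition of hERG channel activity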
Voltage-gated inwardly rectifying potassium channel KCNH2, sequence (Q12809 whole entry): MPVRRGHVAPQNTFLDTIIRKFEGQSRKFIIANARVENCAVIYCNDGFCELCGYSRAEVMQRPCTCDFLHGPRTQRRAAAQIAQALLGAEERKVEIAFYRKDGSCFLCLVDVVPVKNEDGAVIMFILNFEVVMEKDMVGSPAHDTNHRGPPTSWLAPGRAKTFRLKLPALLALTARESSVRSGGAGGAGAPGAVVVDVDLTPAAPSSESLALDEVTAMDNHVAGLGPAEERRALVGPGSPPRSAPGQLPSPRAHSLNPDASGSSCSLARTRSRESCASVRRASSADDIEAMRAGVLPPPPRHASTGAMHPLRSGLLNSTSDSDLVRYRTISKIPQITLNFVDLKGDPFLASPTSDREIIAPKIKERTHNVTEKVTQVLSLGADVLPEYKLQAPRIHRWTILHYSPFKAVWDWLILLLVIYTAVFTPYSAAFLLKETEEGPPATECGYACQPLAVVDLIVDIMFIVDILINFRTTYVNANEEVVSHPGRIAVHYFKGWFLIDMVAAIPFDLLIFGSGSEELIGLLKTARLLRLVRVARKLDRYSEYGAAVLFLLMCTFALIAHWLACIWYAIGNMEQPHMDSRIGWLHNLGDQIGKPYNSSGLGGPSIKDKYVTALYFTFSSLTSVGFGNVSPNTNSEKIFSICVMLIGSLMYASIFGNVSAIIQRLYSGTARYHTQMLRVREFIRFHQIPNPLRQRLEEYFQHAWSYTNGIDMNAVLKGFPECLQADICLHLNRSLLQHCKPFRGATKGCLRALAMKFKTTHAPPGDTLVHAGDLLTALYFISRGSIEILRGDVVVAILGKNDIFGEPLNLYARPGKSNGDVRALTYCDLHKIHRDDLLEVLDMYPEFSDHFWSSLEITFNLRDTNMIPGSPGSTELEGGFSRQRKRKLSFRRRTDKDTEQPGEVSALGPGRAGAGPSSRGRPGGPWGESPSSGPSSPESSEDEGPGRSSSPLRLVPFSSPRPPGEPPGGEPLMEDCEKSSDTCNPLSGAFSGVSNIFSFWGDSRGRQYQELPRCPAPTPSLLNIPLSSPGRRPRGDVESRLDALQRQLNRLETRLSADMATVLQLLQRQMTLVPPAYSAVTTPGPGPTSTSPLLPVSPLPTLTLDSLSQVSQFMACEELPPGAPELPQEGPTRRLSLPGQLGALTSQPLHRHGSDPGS

[11] = molecular target: Heat shock protein HSP 90-alpha (Homo sapiens, UniProt P07900); assay type: functional, organism-based
[12] = molecular target: Long-chain-fatty-acid--AMP ligase FadD28 (Mycobacterium tuberculosis, UniProt P9WQ59); assay: Fluorescence polarization aasay to screen for inhibitors that compete for the binding of FadD28 to a bisubstrate Measured in Biochemical System Using Plate Reader - 2147-01_Inhibitor_Dose_CherryPick_Activity.; assay type: functional, Mycobacterium tuberculosis H37Rv
Long-chain-fatty-acid--AMP ligase FadD28, sequence (P9WQ59 whole entry): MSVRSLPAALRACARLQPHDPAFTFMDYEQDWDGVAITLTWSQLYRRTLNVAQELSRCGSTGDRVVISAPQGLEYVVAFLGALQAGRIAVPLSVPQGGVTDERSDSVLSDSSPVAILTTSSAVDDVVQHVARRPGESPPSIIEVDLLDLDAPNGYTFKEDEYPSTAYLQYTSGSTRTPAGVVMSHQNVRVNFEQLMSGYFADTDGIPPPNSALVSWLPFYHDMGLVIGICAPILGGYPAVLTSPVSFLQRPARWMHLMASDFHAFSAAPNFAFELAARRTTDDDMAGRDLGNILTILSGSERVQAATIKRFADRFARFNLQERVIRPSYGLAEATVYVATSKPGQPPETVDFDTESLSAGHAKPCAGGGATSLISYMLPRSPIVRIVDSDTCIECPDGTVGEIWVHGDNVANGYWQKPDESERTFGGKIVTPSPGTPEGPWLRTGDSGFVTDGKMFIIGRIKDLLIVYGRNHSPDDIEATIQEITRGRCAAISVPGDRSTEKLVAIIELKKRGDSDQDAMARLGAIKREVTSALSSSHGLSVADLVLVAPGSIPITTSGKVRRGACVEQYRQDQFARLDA

For Cc1ccc(NC(=O)CN(C)C(=O)Cc2ccc(Cl)cc2Cl)cc1, the IC50 [1] was 6.81 µM (active), the IC50 [2] was 83.3 µM (inactive) and the IC50 [3] was 16.5 µM (inactive).

With C[C@H](NC(=O)C[C@@H]1C=C[C@@H](NC(=O)Cc2ccccn2)[C@@H](CO)O1)c1ccccc1 the AbsAC35 [4] was 153.45 µM.

CN1C(=O)c2cc(NC(=O)Cc3cccs3)ccc2OC[C@@H]2O[C@H](CC(=O)NCc3ccc(-c4ccccc4)cc3)CC[C@H]21 showed an AbsAC35 [4] of 112.32 µM.

For O=[N+]([O-])c1ccc(-c2ccc(/C=N/c3cccc4ccccc34)o2)cc1, the IC50 [5] was 8.15 µM (active).

With COc1ccc(C2=Nn3c(nnc3-c3ccccc3OC)SC2)cc1OCC1CC1 the IC50 [6] was 0.35 µM (active), the IC50 [7] was > 109 µM (inactive) and the AC50 [8] was 29.1 µM (active).

For CCCCCCCC/C=C\CCCCCCCC(=O)NCCO [OLEOYLETHANOLAMIDE], the AC50 [9] was 31.6 µM (inconclusive), the AC50 [10] was 35.5 µM (inconclusive) and the AC50 [11] was 7.67 µM (active). For the same molecule, the AC50 [12] was > 100 µM (inactive).
